Source: paper PMC10299588, “Bromotyrosine-Derived Metabolites from a Marine Sponge Inhibit Pseudomonas aeruginosa Biofilms” (International Journal of Molecular Sciences, 2023)
Entries after “also recorded” stand apart in the source; their conditions may differ.

How the values were obtained:
Format in all cases: cell-based, Pseudomonas aeruginosa
[1] = test system: planktonic P. aeruginosa PAO1; experiment: Minimum inhibitory concentration (MIC) determination; conditions: Pseudomonas aeruginosa; planktonic (free-living) PAO1, LB medium, 18 h, 37 °C
Procedure: The minimum inhibitory concentration (MIC) of compounds and antibiotics were performed as previously described, with minor modification. […] Three antibiotics, including tobramycin, ciprofloxacin, and meropenem, were dissolved in water and filter sterilized. Ten microliters of two-fold serially diluted antibiotics were transferred to a 96-well Costar plate (Corning Inc., Corning, MA, USA) followed by the addition of 90 µL of diluted cultures. After an 18-h incubation at 37 °C in the static condition, optical density OD600 was monitored using a Synergy 2 microplate reader (BioTek, Winooski, VT, USA). […] The MIC was determined as the lowest concentrations of antibiotics that inhibit complete bacterial growth compared to growth control.

[2] = test system: PAO1 biofilms; experiment: Fluorescence microscopy of biofilms (SYTO9/propidium iodide)
Procedure: (§1) Biofilms of wild-type PAO1 and isogenic biofilm matrix component mutants were treated with ianthelliformisamines or ciprofloxacin alone and the combinations. Their biofilms were simultaneously stained with SYTO9 (green) and propidium iodide (red). Cells with intact membranes were stained green, while cells with compromised membranes were stained red.
(§2) For biofilm bacteria imaging, bacteria were cultured, treated with test compounds, and washed, as previously mentioned in the biofilm inhibition assay. The biofilm bacteria were stained using a LIVE/DEAD BacLight bacterial viability kit (Molecular Probes, Inc., Eugene, OR, USA), which consists of SYTO9 (green; staining cells with intact membrane) and propidium iodide (red; staining cells with compromised membrane). Images were captured using a high-content imaging system Operetta CLS (Perkin Elmer, Waltham, MA, USA) with a 60× water-immersion objective.

[3] = test system: PDO300 biofilms; experiment: as above
Procedure: as §1, §2

[4] = test system: PAO1ΔpslA biofilms; experiment: as above; conditions: alone
Procedure: as §1, §2

[5] = test system: PDO300Δalg8 biofilms; experiment: as above
Procedure: as §1, §2

[6] = test system: PAO1ΔpelF biofilms
Procedure: as §1, §2

[7] = test system: DNA damage reporter strain MDM-623; experiment: Cellular bioluminescent assay (DNA damage reporter); conditions: 8 h; ciprofloxacin at 0.0625, 0.083, 0.25 and 25 µg/mL
Description: Ciprofloxacin, a fluroquinolone antibiotic, has been extensively utilized to treat various bacterial infections. It targets bacterial DNA topoisomerase and DNA gyrase, which produce breakage of double-stranded DNA, ultimately leading to cell death. […] In the effort of identifying the mechanisms of action of test compounds, we employed a DNA damage reporter strain MDM-623, which was constructed based on the promoter-luciferase reporter gene. The increased luminescence readouts are indicative of gyrase inhibition-induced promoter upregulation through the recA pathway. […] Nevertheless, there was no difference in the response of MDM-623 upon exposure to test compounds and the solvent (Figure 5E). The above results may imply that test compounds are unlikely to be DNA gyrase inhibitors and that their mechanism of action is unrelated to that of ciprofloxacin.
The reporter strain MDM-623 was kindly provided by Dr. Timothy Opperman (Microbiotix, Inc., Worcester, MA, USA). The strain harbors a promoter region from PA0614 fused to Photorhabdus luminescens luciferase luxCDABE operon, which was constructed to respond to DNA damage. All experiments were carried out as previously described with minor modification. […] Luminescence was monitored using a BioTek Synergy H1 Hybrid microplate reader for 8 h at 30-min intervals. […]

[8] = test system: PAO1ΔpslA (Psl deletion mutant); experiment: Biofilm inhibition assay (OD600 growth and resazurin biofilm viability)
Procedure: (§3) Figure 2 Biofilm assays to identify compounds that prevent biofilm formation. Biofilm inhibition assay. P. aeruginosa cultures were seeded into 384-well plates after dispensing compounds and antibiotics. The plates were incubated for 24 h at 37 °C followed by recording bacterial growth (OD600) and measuring the viability of biofilm bacteria using resazurin.
(§4) The overnight cultures at 37 °C in LB medium were washed once with sterile saline 0.9% (w/v) and adjusted to an OD600 of 0.05, and 1% inoculum was transferred into a fresh LB medium. Following incubation at 37 °C, 200 rpm for 6–6.5 h to reach the mid-log phase, the cells were washed once with sterile saline 0.9% and diluted to an OD600 of 0.01. Then, 45 µL aliquots were dispensed into 384-well plates (Greiner Bio-One, Kremsmünster, Austria, catalog no. 781091). In biofilm inhibition assays, test compounds (5 µL) were loaded prior to the addition of bacteria. The plates were incubated for 24 h at 37 °C in static conditions. The effects of compounds on bacterial growth and viability of biofilm bacteria were determined by the OD600 and resazurin metabolic assay, respectively. The final concentrations of DMSO in the assays were 1–2%. The negative controls or untreated cultures consisted of inoculum and different concentrations of DMSO. Antibiotic ciprofloxacin (0.25 µg/mL and 25 µg/mL) was used as positive controls. The initial OD600 and final OD600 were read before incubation at 37 °C and after 24 h incubation, respectively, followed by assessment of biofilm viability by resazurin metabolic assay. The experiments were carried out with three technical replicates and repeated at least twice. The growth inhibition was calculated as a function of the percentage of the total bacterial inhibition using Equation (1), where AB is the OD600 of LB medium, and AT0 and ATf are the OD600 recorded at inoculating time and at the end of the assay. (1) % Inhibition=100 × [ 1 − [OD600 (Asample Tf− Asample T0)−(AB Tf − AB T0)/OD600 (Anegative control Tf− Anegative control T0)−(AB Tf − AB T0)]]
(§5) Resazurin sodium salt (Sigma-Aldrich, St. Louis, MI, USA) was dissolved in Milli-Q water at 0.2% (w/v) and filter sterilized. The solution was stored at −20 °C in the dark. The assay was performed as previously described with modification. The cultures were withdrawn, and the plates were washed three times with sterile water using the plate washer (BioTek). To remove the remaining water in the wells, the plates were tapped with autoclaved paper towels. An amount of 50 µL of diluted RSZ solution in LB medium was added into each well, followed by incubation at 37 °C for 5–6 h. A microplate reader (BioTek Synergy 2) was used to measure the fluorescence intensity (excitation 530 nm, emission 590 nm). Data collected were determined as a function of fluorescence percentage using Equation (2), where FB is the fluorescence of the diluted RSZ solution in LB medium in the absence of P. aeruginosa cells. (2) % Inhibition=[(Fnegative control −FB )−(Fsample −FB )/(Fnegative control − FB )]×100

[9] = test system: PAO1ΔpelF (Pel deletion mutant); experiment: as above; conditions: ciprofloxacin alone, sub-MIC
Procedure: as §3, §4, §5

[10] = test system: outer membrane of wild-type PAO1 cells; experiment: NPN uptake assay (outer membrane permeability); conditions: PAO1 pre-treated with 100 µM CCCP, 30 min; polymyxin B at 6.4 and 10 µg/mL
Procedure: The effect of ianthelliformisamines on the permeability of the outer membrane was determined using an NPN uptake assay. NPN (1-N-phenylnapthylamine), a hydrophobic fluorescent probe, is excluded from the intact outer membranes of Gram-negative bacteria such as P. aeruginosa. It intensely fluoresces once it gains access to the phospholipid layer of membrane-compromised cells (Figure 5A). The experiments were conducted with different concentrations of ianthelliformisamines and sub-inhibitory doses of ciprofloxacin. […] The level of fluorescence intensity in bacteria challenged with test compounds, even at highest testing concentrations, resembled that in cells treated with DMSO.
The permeability of the outer membrane upon exposure to test compounds was assessed using a 1-N-phenylnapthylamine (NPN) uptake assay. An overnight culture of PAO1 was grown to an OD600 of 0.5, centrifuged, washed with HEPES buffer (5 mM, pH 7.2), and re-suspended in HEPES buffer containing 100 µM CCCP. […] Ninety microliters of the cell suspension were added to the flat-bottomed, black 96-well plate containing 10 µL of test compounds, and the NPN fluorescence was immediately monitored using a BioTek Synergy H1 Hybrid microplate reader at an excitation of 350 nm and an emission of 420 nm every min for 30 min. […]

NC[C@H]1O[C@H](O[C@H]2[C@H](O)[C@@H](O[C@H]3O[C@H](CO)[C@@H](O)[C@H](N)[C@H]3O)[C@H](N)C[C@@H]2N)[C@H](N)C[C@@H]1O [tobramycin, reference compound]
MIC [1]: 2 µg/mL

O=C(O)c1cn(C2CC2)c2cc(N3CCNCC3)c(F)cc2c1=O [ciprofloxacin, reference compound]
cell phenotype [2]: long, filamentous phenotypes as well as small, round spheroplasts
cell phenotype [3]: long, filamentous phenotypes as well as small, round spheroplasts
biofilm after treatment [4]: unable to form biofilms; also recorded: eradicated
cell phenotype [5]: long, filamentous phenotypes as well as small, round spheroplasts
MIC [1]: 0.25 µg/mL
cell phenotype [6]: long, filamentous phenotypes as well as small, round spheroplasts
luminescence response of DNA damage reporter (gyrase inhibition) [7]: steadily enhanced
bacterial growth inhibition ([8]; alone at 1/3 MIC): moderately inhibited
prevention of biofilm formation ([8]; alone at 1/3 MIC): completely prevented
reduction of bacterial growth ([8]; alone at 1/3 and 1/4 MIC): > 40%
suppression of biofilm formation ([8]; alone at 1/3 and 1/4 MIC): ~ 100%
effect on survival of suspended cells ([8]; sub-lethal doses (1/3, 1/4 MIC) alone): ~ 50%
biofilm response (reduction) [9]: ~ 60%

polymyxin B
outer membrane permeabilization (NPN fluorescence) [10]: prominent fluorescence

C[C@@H](O)[C@H]1C(=O)N2C(C(=O)O)=C(S[C@@H]3CN[C@H](C(=O)N(C)C)C3)[C@H](C)[C@H]12 [meropenem, reference compound]
MIC [1]: 0.375 µg/mL
